Test results reported in ChEMBL document CHEMBL4828771, “Discovery and Development of a Potent, Selective, and Orally Bioavailable CHK1 Inhibitor Candidate: 5-((4-((3-Amino-3-methylbutyl)amino)-5-(trifluoromethyl)pyrimidin-2-yl)amino)picolinonitrile” (J Med Chem, 2021).
pIC50: −log10 of the molar value. Active and inactive are the calls of the source. No cut-off for these calls is given here.

Columns and labels:
RPMI-8226 = assay: Antiproliferative activity against human RPMI-8226 cells incubated for 72 hrs by CCK8 assay; format: functional, cell-based
A549 = assay: Antiproliferative activity against human A549 cells incubated for 72 hrs in presence of gemcitabine by CCK8 assay; format: functional, cell-based
[1] = biological target: T1, Serine/threonine-protein kinase DCLK3 (Homo sapiens) (UniProt Q9C098); assay: Inhibition of wild type human DCAMKL3 (M1 to G289 residue) expressed in bacterial expression system assessed as protein activity at 0.5 uM relative to control; set-up: scale not given: the % may be the effect or the level left
T1 sequence (whole entry): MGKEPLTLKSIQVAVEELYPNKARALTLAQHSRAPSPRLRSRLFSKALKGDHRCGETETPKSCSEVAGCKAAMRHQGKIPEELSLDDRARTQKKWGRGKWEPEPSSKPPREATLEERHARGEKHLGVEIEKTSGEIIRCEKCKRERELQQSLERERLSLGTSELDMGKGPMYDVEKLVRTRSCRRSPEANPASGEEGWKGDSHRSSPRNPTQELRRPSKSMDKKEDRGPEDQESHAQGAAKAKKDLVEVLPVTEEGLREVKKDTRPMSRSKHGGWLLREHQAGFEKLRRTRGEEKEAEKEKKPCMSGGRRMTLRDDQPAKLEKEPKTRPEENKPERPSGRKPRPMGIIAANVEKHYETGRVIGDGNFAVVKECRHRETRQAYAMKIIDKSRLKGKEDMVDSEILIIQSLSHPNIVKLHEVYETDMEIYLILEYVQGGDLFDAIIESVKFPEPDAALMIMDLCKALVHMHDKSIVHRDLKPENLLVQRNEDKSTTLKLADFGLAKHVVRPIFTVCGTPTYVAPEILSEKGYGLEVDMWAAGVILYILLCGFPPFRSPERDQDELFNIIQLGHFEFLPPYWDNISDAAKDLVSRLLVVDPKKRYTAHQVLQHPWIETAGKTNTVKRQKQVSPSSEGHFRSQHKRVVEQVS

[2] = AUCt in ICR mouse at 20 mg/kg, po measured after 0.083 to 48 hrs by LC-MS/MS analysis; format: ADME, organism-based; set-up: route oral, dose 20 mg/kg, time 0.083-48 hrs; conditions: in vivo
[3] = biological target: T2, Serine/threonine-protein kinase Chk1 (Homo sapiens) (UniProt O14757); assay: Inhibition of CHK1 in human HT-29 cells assessed as […] residue at 0.12 to 3.3 uM incubated for 12 hrs in presence of gemcitabine by Western blot analysis; format: cell-based; conditions: dose 0.12-3.3 µM
T2 sequence (whole entry): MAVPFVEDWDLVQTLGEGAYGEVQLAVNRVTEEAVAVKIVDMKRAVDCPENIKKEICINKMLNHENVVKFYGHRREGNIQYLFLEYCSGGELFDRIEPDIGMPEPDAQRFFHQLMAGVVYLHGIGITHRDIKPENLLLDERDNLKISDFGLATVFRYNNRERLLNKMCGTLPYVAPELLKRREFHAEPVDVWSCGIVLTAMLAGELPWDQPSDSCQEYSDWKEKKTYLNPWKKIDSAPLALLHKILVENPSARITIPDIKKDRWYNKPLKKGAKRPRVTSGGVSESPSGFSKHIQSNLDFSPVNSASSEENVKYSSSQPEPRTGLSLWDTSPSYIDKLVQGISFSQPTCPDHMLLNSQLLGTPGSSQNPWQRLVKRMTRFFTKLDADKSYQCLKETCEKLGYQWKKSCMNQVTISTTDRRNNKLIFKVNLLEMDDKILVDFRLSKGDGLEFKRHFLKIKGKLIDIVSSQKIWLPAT

[4] = biological target: T3, Serine/threonine-protein kinase Chk1 (Homo sapiens, UniProt O14757); assay: Inhibition of CHK1 (unknown origin) incubated for 1 hr in presence of ATP by HTRF assay
T3 sequence (O14757 whole entry): T2 sequence (whole entry)

MV4-11 [5] = assay: Antitumor activity against human MV4-11 cells xenografted in po dosed mouse assessed as inhibition of tumor growth administered for 21 days measured twice every week relative to control; format: functional, organism-based; conditions: time 21.0 day
Z-138 = assay: Antiproliferation activity against human Z138 cells assessed as reduction in cell viability incubated for 72 hrs by MTS assay; format: functional, cell-based; conditions: Z-138, 72 h
Mus musculus = assay: Downregulation of S296 phosphorylation in tumor of mouse xenografted with human HT-29 cells at 30 mg/kg, po dosed 5 days/week for 22 days cotreated with gemcitabine by Western blot analysis; format: functional, organism-based; conditions: time 22.0 day
[6] = Cmax in ICR mouse at 20 mg/kg, po measured after 0.083 to 48 hrs by LC-MS/MS analysis; format: ADME, organism-based; set-up: route oral, time upper 48 hrs, time lower 0.083 hrs, dose 20 mg/kg; conditions: in vivo
[7] = AUC (0 to infinity) in ICR mouse at 20 mg/kg, po measured after 0.083 to 48 hrs by LC-MS/MS analysis; format: ADME, organism-based; set-up: route oral, time upper 48 hrs, time lower 0.083 hrs, dose 20 mg/kg; conditions: in vivo
MV4-11 [8] = assay: Antiproliferation activity against human MV4-11 cells assessed as reduction in cell viability incubated for 72 hrs by MTS assay; format: functional, cell-based; conditions: MV4-11, 72 h
HT-29 [9] = assay: Induction of gamma-H2A.X in human HT-29 cells at 0.12 to 3.3 uM incubated for 12 hrs in presence of gemcitabine by Western blot analysis; format: functional, cell-based; conditions: dose 0.12-3.3 µM
HT-29 [10] = assay: Antitumor activity against human HT-29 cells xenografted in mouse assessed as reduction in tumor growth by measuring T/C ratio at 30 mg/kg, po dosed 5 days/week for 22 days measured twice every week; format: functional; conditions: time 22 day
hERG (KCNH2) = hERG (KCNH2) (Homo sapiens, UniProt Q12809); assay: Inhibition of human ERG expressed in HEK293 cells at 10 uM by patch-clamp technique relative to control; format: cell-based; conditions: HEK293 cells that express hERG
[11] = biological target: Ribosomal protein S6 kinase alpha-2 (Homo sapiens) (UniProt Q15349); assay: Inhibition of wild type human RSK3 expressed in bacterial expression system assessed as protein activity at 0.5 uM relative to control; set-up: scale not given: the % may be the effect or the level left
MV4-11 [12] = assay: Antitumor activity against human MV4-11 cells xenografted in mouse assessed as inhibition of tumor growth at 15 mg/kg, po dosed for 21 days measured twice every week relative to control; format: functional; conditions: MV4-11, po, 504 h, time 21 day, read-out: TGI
MV4-11 [13] = assay: Antitumor activity against human MV4-11 cells xenografted in mouse assessed as inhibition of tumor growth at 5 mg/kg, po dosed for 21 days measured twice every week relative to control; format: functional; conditions: MV4-11, po, 504 h, time 21 day, read-out: TGI
[14] = biological target: Ribosomal protein S6 kinase alpha-3 (Homo sapiens) (UniProt P51812); assay: Inhibition of wild type human RSK2 expressed in mammalian expression system assessed as protein activity at 0.5 uM relative to control; set-up: scale not given: the % may be the effect or the level left
[15] = Selectivity ratio of Antiproliferative activity against human RPMI-8226 cells to Antiproliferative activity against human RPMI-8226 cells in presence of gemcitabine; format: functional
[16] = Selectivity ratio of Antiproliferative activity against human HT-29 cells to Antiproliferative activity against human HT-29 cells in presence of gemcitabine; format: functional
[17] = Half life in ICR mouse at 20 mg/kg, po measured after 0.083 to 48 hrs by LC-MS/MS analysis; format: ADME, organism-based; conditions: in vivo, time 0.083-48 hrs
HT-29 [18] = assay: Antitumor activity against human HT-29 cells xenografted in mouse assessed as reduction in tumor growth by measuring T/C ratio at 30 mg/kg, po cotreated with gemcitabine dosed 5 days/week for 22 days measured twice every week; format: functional; conditions: time 22 day

Chain of Ribosomal protein S6 kinase alpha-3 (Homo sapiens) (P51812 whole entry): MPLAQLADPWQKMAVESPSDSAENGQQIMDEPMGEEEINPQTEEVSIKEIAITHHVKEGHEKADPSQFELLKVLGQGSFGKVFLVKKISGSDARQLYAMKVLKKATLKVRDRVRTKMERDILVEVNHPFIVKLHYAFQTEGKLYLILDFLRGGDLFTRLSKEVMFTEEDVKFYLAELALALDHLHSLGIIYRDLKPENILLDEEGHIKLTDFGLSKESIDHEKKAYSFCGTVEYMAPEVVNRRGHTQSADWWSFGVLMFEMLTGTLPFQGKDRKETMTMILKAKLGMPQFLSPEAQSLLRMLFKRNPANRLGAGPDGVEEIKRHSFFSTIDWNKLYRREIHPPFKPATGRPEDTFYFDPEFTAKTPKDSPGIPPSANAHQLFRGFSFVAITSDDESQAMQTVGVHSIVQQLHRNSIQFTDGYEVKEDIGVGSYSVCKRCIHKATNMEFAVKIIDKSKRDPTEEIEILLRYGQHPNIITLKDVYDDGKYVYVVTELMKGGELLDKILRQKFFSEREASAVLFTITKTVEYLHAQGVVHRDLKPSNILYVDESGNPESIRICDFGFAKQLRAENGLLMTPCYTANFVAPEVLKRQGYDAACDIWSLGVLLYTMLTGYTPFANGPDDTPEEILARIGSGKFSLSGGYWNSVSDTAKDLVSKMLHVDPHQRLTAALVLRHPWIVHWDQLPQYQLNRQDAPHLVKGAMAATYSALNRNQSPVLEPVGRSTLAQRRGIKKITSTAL
Chain of hERG (KCNH2) (Q12809 whole entry): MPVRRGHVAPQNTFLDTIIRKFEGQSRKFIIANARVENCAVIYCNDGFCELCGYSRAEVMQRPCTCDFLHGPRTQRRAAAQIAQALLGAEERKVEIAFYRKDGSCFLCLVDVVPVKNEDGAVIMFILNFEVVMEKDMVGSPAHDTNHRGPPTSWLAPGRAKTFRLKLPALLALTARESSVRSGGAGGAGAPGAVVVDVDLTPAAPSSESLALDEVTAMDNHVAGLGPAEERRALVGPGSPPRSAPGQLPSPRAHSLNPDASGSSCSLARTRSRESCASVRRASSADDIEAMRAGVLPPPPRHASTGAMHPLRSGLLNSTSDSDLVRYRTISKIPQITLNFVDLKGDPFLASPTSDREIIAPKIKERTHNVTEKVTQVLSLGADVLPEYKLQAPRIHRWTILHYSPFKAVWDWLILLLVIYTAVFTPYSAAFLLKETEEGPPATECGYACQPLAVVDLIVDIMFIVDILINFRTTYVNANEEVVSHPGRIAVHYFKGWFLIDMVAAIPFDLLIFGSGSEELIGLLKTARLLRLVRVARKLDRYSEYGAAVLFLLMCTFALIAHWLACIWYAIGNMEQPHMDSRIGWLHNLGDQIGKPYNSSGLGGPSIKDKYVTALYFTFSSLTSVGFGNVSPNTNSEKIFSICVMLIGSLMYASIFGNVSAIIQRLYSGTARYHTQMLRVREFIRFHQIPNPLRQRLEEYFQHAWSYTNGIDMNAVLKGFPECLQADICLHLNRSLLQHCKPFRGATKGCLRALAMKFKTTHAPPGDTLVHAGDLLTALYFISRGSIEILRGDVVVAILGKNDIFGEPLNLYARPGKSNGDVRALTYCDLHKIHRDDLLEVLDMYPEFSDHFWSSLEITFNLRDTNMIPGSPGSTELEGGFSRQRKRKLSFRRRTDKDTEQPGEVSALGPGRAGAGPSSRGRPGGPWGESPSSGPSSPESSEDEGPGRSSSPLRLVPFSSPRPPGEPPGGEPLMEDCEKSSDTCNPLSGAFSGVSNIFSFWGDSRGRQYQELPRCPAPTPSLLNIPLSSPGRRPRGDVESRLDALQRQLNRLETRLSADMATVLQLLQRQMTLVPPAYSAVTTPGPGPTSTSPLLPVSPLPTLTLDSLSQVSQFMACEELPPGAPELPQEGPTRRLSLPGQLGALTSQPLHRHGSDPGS
Chain of Ribosomal protein S6 kinase alpha-2 (Homo sapiens) (Q15349 whole entry): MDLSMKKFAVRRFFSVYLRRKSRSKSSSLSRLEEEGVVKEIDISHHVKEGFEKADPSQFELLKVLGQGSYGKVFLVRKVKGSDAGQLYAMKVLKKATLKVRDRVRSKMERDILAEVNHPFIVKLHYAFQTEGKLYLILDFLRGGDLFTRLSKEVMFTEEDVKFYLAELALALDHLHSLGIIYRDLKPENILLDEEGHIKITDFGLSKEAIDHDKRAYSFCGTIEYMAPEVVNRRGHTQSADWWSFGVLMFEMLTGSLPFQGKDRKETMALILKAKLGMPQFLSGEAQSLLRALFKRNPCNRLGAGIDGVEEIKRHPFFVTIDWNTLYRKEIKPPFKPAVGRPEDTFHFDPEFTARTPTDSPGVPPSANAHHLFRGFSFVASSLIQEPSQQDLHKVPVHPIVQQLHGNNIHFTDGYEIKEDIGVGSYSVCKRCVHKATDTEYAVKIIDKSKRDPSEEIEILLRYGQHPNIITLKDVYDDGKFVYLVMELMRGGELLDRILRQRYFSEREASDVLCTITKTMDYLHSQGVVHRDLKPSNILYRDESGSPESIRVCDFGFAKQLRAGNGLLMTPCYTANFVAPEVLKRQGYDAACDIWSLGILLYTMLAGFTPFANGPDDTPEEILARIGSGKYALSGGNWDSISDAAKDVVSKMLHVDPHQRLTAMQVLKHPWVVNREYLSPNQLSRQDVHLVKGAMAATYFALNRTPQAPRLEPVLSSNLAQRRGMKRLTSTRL

In the case of CC(C)(N)CCNc1nc(Nc2ccc(C#N)nc2)ncc1C(F)(F)F, the Activity (RPMI-8226) was “Active”, the Activity (A549) was “Active” and the Activity [1] was 7%. The AUC(0-t) [2] was 17700 ng·h/mL, the Activity [3] was “Active” and the pIC50 [4] was 7.79. For the same compound, the Activity (MV4-11 [5]) was “Dose-Dependent Effect”, the pIC50 (Z-138) was 5.48 and the Activity (Mus musculus) was “Active”. The Cmax [6] was 1450 ng/mL, the AUC(0-inf) [7] was 22700 ng·h/mL and the pIC50 (MV4-11 [8]) was 6.85. The Activity (HT-29 [9]) was “Active”, the T/C (HT-29 [10]) was 69.05% and the inhibition at 10 µM (hERG (KCNH2)) was 35.5%. For the same compound, the Activity [11] was 14%, the inhibition in vivo at 15 mg/kg (MV4-11 [12]) was 95.5% and the inhibition in vivo at 5 mg/kg (MV4-11 [13]) was 51.6%. For the same compound, the Activity [14] was 13%, the Ratio [15] was 100 and the Ratio [16] was 100. The half-life [17] was 650 min and the T/C (HT-29 [18]) was 11.99%.
